From US20250101062A1, “ANTIMICROBIAL PEPTIDES” (Board of Regents of the University of Nebraska, priority 2023, published 2025)
Where no end group is shown, it is not given here.

Experiments:
MRSA USA300 = assay: microbe, parasite or virus in culture; assay type: cell-based, Staphylococcus aureus; conditions: 17 passages at sub-MIC
Procedure: The experiment was conducted as described (Lakshmaiah et al. (2020) Proc. Natl. Acad. Sci., 117:19446-19454). Briefly, MRSA USA300 was grown to the exponential phase in MHB and diluted to OD600 0.001 (˜10^5 CFU/mL). Aliquots of 90 μL were added to a 96-well polystyrene microplate (Costar, Corning, NY) containing 10 μL of serially diluted LL-37mini, nafcillin, or daptomycin. After overnight incubation at 37° C., the plates were read at 600 nm using a ChroMate™ microplate reader (GMI, Ramsey, MN). Untreated bacterial culture and medium were included as untreated control and blank, respectively. The MIC is the lowest peptide concentration that inhibited the bacterial growth. The wells with sub-MIC levels of the peptides that retained growth approximately half the growth of the control wells were reinoculated in fresh MHB with sub-MIC concertation of peptides or antibiotics to attain exponential phase for MIC determination. In total, 17 passages of the bacterial cultures were conducted. A rapid increase in MIC is an indication of antibiotic resistance.

[1] = test system: S. aureus USA300 biofilms in murine wounds; assay: In vivo biofilm assay, murine wound model; parameters: species or system BALB/c mice; conditions: topical, 24 h
Procedure: Preparation of Inoculum. An overnight culture of S. aureus USA300 LAC was inoculated in fresh MHB and incubated at 37° C. for 3 hours. The suspension was centrifuged at 3000 g for 5 minutes, and the supernatant was discarded. The bacteria were resuspended in 1×PBS, and the OD600 was adjusted to 0.6 (˜3×10^7 CFU/mL).
Experimental Animals. An alternative murine wound model has been established which is slightly different from other studies (Su, et al. (2019) Mol. Pharmaceutics 16:2011-2020; Su, et al. (2023) J. Controlled Release 356:131-141). Female BALB/c mice (3-4 weeks, ˜20 g) were fed with standardized food (Teklad Laboratory diet for rodents) and water (Hydropac Alternative Watering System) ad libitum. Mice were kept in ventilated cages (IVCs) at a temperature of 20-24° C., a humidity of 50-60%, 60 air exchanges per hour, and a 12/12 hour light/dark cycle. All materials, including IVCs, lids, feeders, bottles, bedding, and water, were autoclaved before use. All animal manipulations were performed in a class II laminar flow biological safety cabinet. The study was approved by the Institutional Animal Care and Use Committee (IACUC) of UNMC (Protocol no. 22-015-08-FC).
In Vivo Biofilm Assay. Mice were anesthetized by intraperitoneal injection of ketamine-xylazine (100 mg/kg+10 mg/kg). […] Finally, the plates were incubated at 37° C. for 20 hours and the CFUs were counted. […]

In the case of `CCCCCCCCCC(=O)N[C@@H](Cc1c[nH]c2ccccc12)C(=O)N[C@H](CC(N)=O)C(=O)N[C@@H](CC(=O)O)C(=O)N[C@@H]1C(=O)NCC(=O)N[C@@H](CCCN)C(=O)N[C@@H](CC(=O)O)C(=O)N[C@H](C)C(=O)N[C@@H](CC(=O)O)C(=O)NCC(=O)N[C@H](CO)C(=O)N[C@@H]([C@H](C)CC(=O)O)C(=O)N[C@@H](CC(=O)c2ccccc2N)C(=O)O[C@@H]1C` [Daptomycin], the resistance development (MRSA USA300) is reported as “did not develop resistance” and the “reduction of bacterial burden” value ([1]; 10 mg/kg per wound) is reported as roughly 3 logs.
With RRWWRWWR-NH2 [W543] the resistance development (MRSA USA300) was “essentially no change in the MIC values” and the “bacterial CFU decrease” value ([1]; 4.4 mg/kg per wound) was 2 log.
